Structures can show the parent of a compound that is named as a salt.
Key:
[1] = cumulative dose; cited from earlier work
in vivo = conditions: male, athymic NCr-nu/nu, mouse, iv, 8 mg/kg
[2] = in vivo; cited from earlier work
[3] = tested on: CAKI-1 human renal tumor xenografts; conditions: i.v., equivalent dosages
Method: The 0.8 mg/mL solution was diluted with saline to 0.53 and 0.35 mg/mL.
The 0.975 mg/mL solution was further diluted with saline to 0.65 and 0.43 mg/mL.
Both compounds and vehicle were administered to mice by animal's body weight on each day of treatment with the injection volume being 0.1 mL/10 g of body weight.
Tumors were measured and volume determined using formula L×W^2/2=mm^3; and weight calculated assuming 1 mm^3=1 mg. The study was terminated 95 days after tumor implantation.

Compound | total dosage at which irreversible myocardial toxicity leading to congestive heart failure may be encountered [1] | concentration at 1 day after the last injection (day 26) (in vivo) | AUC [2] | difference in tumor growth, DOX orotate compared with DOX [3]
COc1cccc2c1C(=O)c1c(O)c3c(c(O)c1C2=O)C[C@@](O)(C(=O)CO)C[C@@H]3O[C@H]1C[C@H](N)[C@H](O)[C@H](C)O1 [DOX, (85, 105)-10-[(3-amino-2,3,6-trideoxy-(c-L-lyxo-hexopyranosyl)oxy]-8-glycolyl 1-7,8,9,10-tetrahydro-6,8,11-trihydroxy-1-methoxy-5,12-naphthacenedione hydrochloride] | ~550 mg/m^2 | 7400 ng/g | 9900 µg·h/mL | –
COc1cccc2c1C(=O)c1c(O)c3c(c(O)c1C2=O)C[C@@](O)(C(=O)CO)C[C@@H]3O[C@H]1C[C@H](N)[C@H](O)[C@H](C)O1.O=C(O)c1cc(=O)[nH]c(=O)[nH]1 [DOX orotate, doxorubicin orotate] | – | – | – | no significant difference

From patent US8148339B2, “Method of reducing cardiac levels of doxorubicin when given as orotate salt” (Savvipharm Inc, priority 2006, dated 2012)
